This data set in a line: Ascorbic acid oxidation assay. It counts as physicochemical. The conditions noted are these: 20 μM chelate (30 mol %), 67 μM ascorbic acid in PBS, 45 minutes, FIG. 1. The method, then:
The UV-Vis spectrum of an ascorbic acid solution (67 μM, 12 μg·mL-1) in phosphate buffered saline (PBS) (3 mL) was recorded. The absorbance intensity at λmax=265 nm was observed. An aliquot (30 μL) of iron chelate of ethylenediaminetetraacetic acid (FeEDTA) in PBS (2 mM, 0.7 mg·mL-1) was added to afford a catalytic quantity of FeEDTA (20 μM, 30 mol %) with respect to ascorbic acid. The absorbance intensity (λmax=265 nm) was recorded at intervals of 1 minute for a period of 45 minutes and the data normalized to the t0 absorbance. The experiment was then repeated identically using iron chelate complex FeHBEDP(OH)3 (20 μM, 30 mol %).

SMILES strings stand for the structures.

Consider one compound from patent US8765977B2, “Hydroxylated contrast enhancement agents and imaging method” (General Electric Company, priority 2010, dated 2014).

In the case of `O=C([O-])CN(CCN(CC(=O)[O-])CC(=O)[O-])CC(=O)[O-].[Fe+3]` [FeEDTA, iron chelate of ethylenediaminetetraacetic acid], the “consumption of ascorbic acid” value was “consumes ascorbic acid completely”.
